Earlier results, collected in patent EP3964225A1 (priority 2020, dated 2022).

Test system: B cell growth
Conditions: eight p17 peptides tested

GARASVLSGGELDRWEKIRL [peptide F1, p17-derived peptide, aminoacids 2 to 21 of p17]
cell growth promoting activity: the only one endowed with cell growth promoting activity
